The structures appear in SMILES notation.

The target in one experiment is FGFR4 (Homo sapiens, UniProt P22455). In words: FGFR4 Caliper Assay (in vitro biochemical kinase analysis of FGFR4). The note with it: read-out: Enzymatic activity FGFR4 IC50. Here is the method:
I. In Vitro Biochemical Kinase Analysis of FGFR4
FGFR4 Caliper Assay was used in the present invention to determine the inhibitory activities of the compounds against FGFR4. The detailed experimental procedure was as follows.
2. A reaction system is a mixture solution of 50 mM HEPES, pH 7.5, 1 mM DTT, 0.02% Tween 20, 0.02% BSA, 0.6% DMSO, 10 mM beta glycerol phosphate and 10 μM sodium orthovanadate and 16 mM MgCl2.
3. The reaction system was incubated at 30° C. for 40 minutes.
4. The reaction was terminated by adding a stop solution (100 mM HEPES, pH 7.5, 5% DMSO, 0.1% Caliper coating reagent, 10 mM EDTA and 0.015% Brij35).
5. The culture plate with the terminated kinase reaction was transferred to the Caliper LC 3000 workstation to read the data, the phosphorylated and unphosphorylated peptides were separated by using the Caliper microfluid migration shift technique, and the analyte was transferred by allowing a constant buffer flow through the chip, the migration of the substrate peptide was monitored by the labeled fluorescent signal, and the kinase activity was calculated by using the amount of the phosphate-based peptide formed.
6. Finally, IC50 values were determined by non-linear regression analysis of percent inhibition at different compound concentrations.

Experiment [1] deals with Huh7 hepatocellular carcinoma cells. Kind of experiment: FGFR4 cell proliferation experiment, Cell Titer Glo (CTG). The class given is cell-based. The note with it: Homo sapiens, Huh-7, 72 h, HuH-7 cells, 3 days; for IC50: concentration leading to absolute half growth inhibition; for EC50: concentration leading to half maximal growth inhibition. Here is the method: II. FGFR4 Cell Proliferation Experiment
Cell Titer Glo (CTG) experiment was used in the present invention to evaluate the functional effects of the compounds on cell proliferation. […] Compound-mediated inhibition of cell proliferation/survival was assessed by quantification of cellular ATP levels using CTG reagent (Promega, #G7573). The specific experimental procedure was as follows:
2. 10 μL of medium containing a compound concentration of 10 fold of its final test concentration was added;
3. The dose effect was evaluated by a 5-fold serial dilution of the test compound, starting from 10 μM.
4. After cells incubation for 3 days at 37° C. under 5% CO2, the effect of the inhibitor on cell proliferation was quantified after adding 50 μL of CTG and testing with luminescence.
For orientation: ATP-based viability assays read luminescence as a measure of living cells.

FGFR4, sequence (P22455 22-802): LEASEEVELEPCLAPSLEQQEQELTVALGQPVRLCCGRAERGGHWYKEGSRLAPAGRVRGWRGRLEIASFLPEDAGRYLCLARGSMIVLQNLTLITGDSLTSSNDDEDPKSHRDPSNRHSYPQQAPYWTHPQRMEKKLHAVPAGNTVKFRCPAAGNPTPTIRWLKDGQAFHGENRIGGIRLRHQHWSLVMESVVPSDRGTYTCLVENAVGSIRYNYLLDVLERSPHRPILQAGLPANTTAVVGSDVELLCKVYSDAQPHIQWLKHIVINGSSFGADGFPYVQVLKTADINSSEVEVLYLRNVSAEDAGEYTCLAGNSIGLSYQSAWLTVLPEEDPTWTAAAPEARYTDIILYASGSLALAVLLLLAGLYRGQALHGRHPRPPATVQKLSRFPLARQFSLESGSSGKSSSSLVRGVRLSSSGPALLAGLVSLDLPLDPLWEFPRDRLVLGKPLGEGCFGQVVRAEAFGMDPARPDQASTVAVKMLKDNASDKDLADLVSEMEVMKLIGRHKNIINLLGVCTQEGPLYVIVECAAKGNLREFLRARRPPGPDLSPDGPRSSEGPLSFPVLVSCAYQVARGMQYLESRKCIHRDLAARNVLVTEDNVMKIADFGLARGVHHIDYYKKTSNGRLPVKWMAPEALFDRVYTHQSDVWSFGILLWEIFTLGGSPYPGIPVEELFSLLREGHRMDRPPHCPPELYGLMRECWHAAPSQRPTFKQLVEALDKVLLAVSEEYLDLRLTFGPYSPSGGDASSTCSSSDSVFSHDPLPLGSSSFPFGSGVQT

One may read the IC50 as the concentration at which inhibition is half-maximal. As usually defined, the EC50 is the concentration at which the effect is half-maximal. Higher therefore signals lower potency in that assay. In the case of `C=CC(=O)N[C@H]1COC[C@H]1Nc1ncc2cc(-c3c(Cl)c(OC)cc(OC)c3Cl)ncc2n1` (racemic) [Example 118, (±)—N-((3R,4S)-4-((6-(2,6-dichloro-3,5-dimethoxyphenyl)pyrido[3,4-d]pyrimidin-2-yl)amino)tetrahydrofuran-3-yl)acrylamide], the half-maximal inhibitory concentration (IC50) at FGFR4 was determined as 0.0805 µM; in experiment [1], 0.333 µM. The same molecule displayed an EC50 in experiment [1] of 0.179 µM.
On the same counts, the results for `C=CC(=O)N[C@H]1CCOC[C@H]1Nc1ncc2cc(-c3c(Cl)c(OC)cc(OC)c3Cl)ccc2n1` [BLU-554] are 0.018 µM, 0.126 µM and 0.027 µM.
As to `C=CC(=O)Nc1cccc(C)c1Nc1ncc2cc(-c3c(Cl)c(OC)cc(OC)c3Cl)ccc2n1` [BLU-9931], in experiment [1], inhibition was half-maximal at 1.36 µM (IC50) and the 50% effective concentration (EC50) turned out to be 0.549 µM.
On to `C=CC(=O)Nc1cccc(C)c1Nc1cc2c(=O)n(C)c(-c3c(Cl)c(OC)cc(OC)c3Cl)cc2cn1` [Example 1, N-(2-((7-(2,6-dichloro-3,5-dimethoxyphenyl)-6-methyl-5-oxo-5,6-dihydro-2,6-naphthyridin-3-yl)amino)-3-methylphenyl)acrylamide], for which the IC50 is 0.0139 µM on FGFR4 and 2.45 µM in experiment [1]. This molecule came in with an EC50 in experiment [1] of 1.53 µM.
The like results for `C=CC(=O)Nc1cccc(C)c1Nc1cc2c(=O)[nH]c(-c3c(Cl)c(OC)cc(OC)c3Cl)nc2cn1` [Example 5, N-(2-((2-(2,6-dichloro-3,5-dimethoxyphenyl)-4-oxo-3,4-dihydropyrido[3,4-d]pyrimidin-6-yl)amino)-3-methyl-phenyl)acrylamide] were, in that order, 0.0261 µM, greater than 10 µM and greater than 10 µM.
Regarding `C=CC(=O)Nc1cccc(C)c1Nc1cc2c(=O)oc(-c3c(Cl)c(OC)cc(OC)c3Cl)cc2cn1` [Example 7, N-(2-((3-(2,6-dichloro-3,5-dimethoxyphenyl)-1-oxo-1 H-pyrano[4,3-c]pyridin-7-yl)amino)-3-methylphenyl) acrylamide], the IC50 at FGFR4 came out at 0.0289 µM. Also, in experiment [1], the IC50 is greater than 10 µM and the concentration for a half-maximal effect (EC50) is greater than 10 µM.
Turning to `C=CC(=O)Nc1cccc(C)c1Nc1cc2c(OC)nc(-c3c(Cl)c(OC)cc(OC)c3Cl)cc2cn1` [Example 9, N-(2-((7-(2,6-dichloro-3,5-dimethoxyphenyl)-5-dimethoxy-2,6-naphthyridin-3-yl)amino)-3-methylphenyl)acryl-amide], the IC50 stood at 0.138 µM on FGFR4 and 1.05 µM in experiment [1]. Further, the response in experiment [1] was half-maximal at 0.089 µM (EC50).
Consider `C=CC(=O)Nc1cccc(C)c1Nc1cc2c(OC)nc(-c3c(Cl)c(OC)cc(OC)c3Cl)nc2cn1` [Example 10, N-(2-((2-(2,6-dichloro-3,5-dimethoxyphenyl)-4-methoxy-pyrido[3,4-d]pyrimidin-6-yl)amino)-3-methylphenyl) acrylamide], for which the IC50 on FGFR4 was determined as 0.105 µM. In experiment [1], this molecule had a half-maximal inhibitory concentration (IC50) of 4.82 µM and a half-maximal effective concentration (EC50) of 3.52 µM.
The like results for `C=CC(=O)Nc1cccc(C)c1Nc1cc2c(=O)n(CCOC)c(-c3c(Cl)c(OC)cc(OC)c3Cl)nc2cn1` [Example 11, N-(2-((2-(2,6-dichloro-3,5-dimethoxyphenyl)-3-(2-methoxyethyl)-4-oxo-3,4-dihydropyrido[3,4-d]pyrimidin-6-yl)amino)-3-methylphenyl) acrylamide] were, in that order, 0.101 µM, 4.72 µM and 4.72 µM.
The like results for `C=CC(=O)Nc1cn(C)nc1Nc1ncc2cc(-c3c(Cl)c(OC)cc(OC)c3Cl)ncc2n1` [Example 64, N-(3-((6-(2,6-dichloro-3,5-dimethoxyphenyl)pyrido[3,4-d]pyrimidin-2-yl)amino)-1-methyl-1H-pyrazol-4-yl) acrylamide] were, in that order, 0.0533 µM, 0.269 µM and 0.0542 µM.
For the molecule `[2H]C([2H])([2H])Oc1cc(OC([2H])([2H])[2H])c(Cl)c(-c2cc3cnc(N[C@@H]4COC[C@@H]4NC(=O)C=C)nc3c(NCC3CC3)n2)c1Cl` [Example 425, N-((3R,4S)-4-((8-((cyclopropylmeth-yl)amino)-6-(2,6-dichloro-3,5-bis(meth-oxy-d3)phenyl)pyrido[3,4-d]pyrimi-din-2-yl)amino)tetrahydrofuran-3-yl)acrylamide], the IC50 on FGFR4 worked out at 0.0077 µM.
Take `C=CC(=O)N[C@H]1COC[C@H]1Nc1ncc2cc(-c3c(Cl)c(OC)cc(OC)c3Cl)nc(NCCN(C)C)c2n1` [Example 431, N-((3R,4S)-4-((6-(2,6-dichloro-3,5-di-methoxyphenyl)-8-((2-(dimethylami-no)ethyl)amino)pyrido[3,4-d]pyrimi-din-2-yl)amino)tetrahydrofuran-3-yl) acrylamide]: the IC50 at FGFR4 worked out at 0.519 µM.
Turning to `C=CC(=O)N[C@H]1COC[C@H]1Nc1ncc2cc(-c3c(Cl)c(OC)cc(OC)c3Cl)nc(N(C)C)c2n1` [Example 436, N-((3R,4S)-4-((6-(2,6-dichloro-3,5-di-methoxyphenyl)-8-(dimethylamino)pyrido[3,4-d]pyrimidin-2-yl)amino)tetrahydrofuran-3-yl)acrylamide], the IC50 on FGFR4 was greater than 10 µM.
Regarding `C=CC(=O)N[C@H]1COC[C@H]1Nc1ncc2cc(-c3c(Cl)c(OC)cc(OC)c3Cl)nc(NCC3CCOC3)c2n1` (stereo partly drawn) [Example 439, N-((3R,4S)-4-((6-(2,6-dichloro-3,5-di-methoxyphenyl)-8-(((tetrahydrofuran-3-yl)methyl)amino)pyrido[3,4-d]py-rimidin-2-yl)amino)tetrahydrofuran-3-yl)acrylamide], the half-inhibitory concentration (IC50) on FGFR4 amounted to 0.0046 µM.
Still for that read-out and setting: the same measure for `C=CC(=O)N[C@H]1COC[C@H]1Nc1ncc2cc(-c3c(Cl)c(OC)cc(OC)c3Cl)nc(NC3CCOCC3)c2n1` [Example 444, N-((3R,4S)-4-((6-(2,6-dichloro-3,5-di-methoxyphenyl)-8-((tetrahydro-2H-pyran-4-yl)amino)pyrido[3,4-d]py-rimidin-2-yl)amino)tetrahydrofuran-3-yl)acrylamide]: 0.007 µM.
Same read-out and setting: the same measure for `C=CC(=O)N[C@H]1COC[C@H]1Nc1ncc2cc(-c3c(Cl)c(OC)cc(OC)c3Cl)nc(NCCCCN(C)C)c2n1` [Example 465, N-((3R,4S)-4-((6-(2,6-dichloro-3,5-di-methoxyphenyl)-8-((4-(dimethylamino)butyl)amino)pyrido[3,4-d]pyrimi-din-2-yl)amino)tetrahydrofuran-3-yl) acrylamide]: 0.0464 µM.
For the molecule `C=CC(=O)N[C@H]1COC[C@H]1Nc1ncc2cc(-c3c(Cl)c(OC)cc(OC)c3Cl)nc(C3CC3)c2n1` [Example 609, N-((3R,4S)-4-((8-cyclopropyl-6-(2,6-dichloro-3,5-dimethoxyphenyl)pyri-do[3,4-d]pyrimidin-2-yl)amino)tetra-hydrofuran-3-yl)acrylamide], in experiment [1], the concentration for half-maximal inhibition (IC50) amounted to 0.0561 µM and the EC50 was found to be 0.0366 µM.
On to `C=CC(=O)N[C@H]1COC[C@H]1Nc1ncc2cc(-c3c(Cl)c(OC)cc(OC)c3Cl)nc(OCc3cc(OC)cc(OC)c3)c2n1` [Example 755, N-((3R,4S)-4-((6-(2,6-dichloro-3,5-dimethoxyphenyl)-8-((3,5-dimethoxy-benzyl)oxy)pyrido[3,4-d]pyrimidin-2-yl)amino)tetrahydrofuran-3-yl) acrylamide], for which the IC50 at FGFR4 is 0.043 µM.
On to `C=CC(=O)N[C@H]1COC[C@H]1Nc1ncc2cc(-c3c(F)ccc(OC)c3F)nc(NC)c2n1` [Example 777, N-((3R,4S)-4-((6-(2,6-difluoro-3-meth-oxyphenyl)-8-(methylamino)pyri-do[3,4-d]pyrimidin-2-yl)amino)tetra-hydrofuran-3-yl)acrylamide], for which, in experiment [1], the half-maximal inhibitory concentration (IC50) was found to be 0.66 µM and the EC50 amounted to 0.651 µM.
On to `C=CC(=O)N[C@H]1COC[C@H]1Nc1ncc2cc(-c3c(Cl)c(OC)cc(OC)c3Cl)nc(N3CC[C@](C)(O)C3)c2n1` [Example 778, N-((3R,4S)-4-((6-(2,6-dichloro-3,5-dimethoxyphenyl)-8-((S)-3-hydroxy-3-methylpyrrolidin-1-yl)pyrido[3,4-d]py-rimidin-2-yl)amino)tetrahydrofuran-3-yl)acrylamide], for which, in experiment [1], the IC50 was determined as 0.0112 µM and the EC50 stood at 0.0095 µM.
In experiment [1], `C=CC(=O)N[C@H]1COC[C@H]1Nc1ncc2cc(-c3c(Cl)c(OC)cc(OC)c3Cl)nc(N3CC[C@@](C)(O)C3)c2n1` [Example 779, N-((3R,4S)-4-((6-(2,6-dichloro-3,5-dimethoxyphenyl)-8-((R)-3-hydroxy-3-methylpyrrolidin-1-yl)pyrido[3,4-d]pyrimidin-2-yl)amino)tetrahydro-furan-3-yl)acrylamide] displayed a 50% inhibitory concentration (IC50) of 0.0086 µM and an EC50 of 0.0075 µM.

Source of the values: patent publication US11555036B2, “FGFR4 inhibitor, preparation method therefor and pharmaceutical use thereof” (Abbisko Therapeutics Co., Ltd., priority 2016, dated 2023).
